Data on three compounds can be found in US20230076792A1, “SEQUENTIAL TARGETING IN CROSSLINKING NANO-THERANOSTICS FOR TREATING BRAIN TUMORS” (The Regents of the University of California, priority 2019, published 2023).

A short description of series [1]: In vitro drug release profile (dialysis, pH 7.4 then pH 6.5). The series is classed as physicochemical. As to conditions: pH 7.4 PBS. As to the method:
Drug release profile. STICK-NP@Cy@Gd was prepared to evaluate the in vitro release profile using dialysis cassettes (Pierce Chemical Inc.) with a 3 kDa MWCO. To make an ideal sink condition, 10 g charcoal was added in the release medium. The cassettes were dialyzed against PBS (pH7.4) at room temperature. The PBS at pH 7.4 was replaced with fresh PBS at pH 6.5 at 4 h. The concentration of CY7.5 and Gd-DTPA remaining in the dialysis cassette at various time points was measured by UV-vis spectroscopy and ICP-MS.

Series [2] relates to U87-MG cells. In words: Cellular uptake assay in brain tumor cells. The series is classed as cell-based, human. As to conditions: pH 6.5 versus pH 7.4, Cy7.5 0.1 mg/mL. Here is the method:
To study the cellular uptake of STICK-NP@Cy, the bEnd.3 cells or U87-MG cells were seeded on 8-well chamber slides (10000 cells/well) and treated with STICK-NP@Cy and other controls (0.1 mg/mL Cy7.5) for 1 hour and washed by PBS three times. Cells were then fixed and stained with DAPI. Cell imaging was acquired using a Keyence fluorescence microscope. For quantitative study, bEnd.3 cells or U87-MG cells (10000 cells/well) were seeded in 96 well plate for overnight and then treated the cells with STICK-NP@Cy and other controls (0.1 mg/mL Cy7.5). Cells were harvested at 0 h, 1 h, 2 h, 3 h, and 4 h and washed with PBS. Total cells were lysed with 100 μL DMSO and the fluorescence intensity was measured by fluorescence spectrophotometer (RF-6000, Shimazu, Japan). To inhibit GLUT1 activity, bEnd.3 cells were pretreated with 40 μM of WZB-117 for 24 h before incubation with STICK-NP@Cy. For the tumor uptake study, U87-MG cells were pretreated with 40 μM of AZT for 24 h to alter the expression of surface sialic acid. To block the interaction, U87-MG cells were pre-incubated with excess free CBA (80 μM) for 24 h to compete for the binding sites with STICK-NP@Cy (pH 6.5) through the CBA targeting moiety in the secondary smaller micelles.

The nature of series [3]: Pharmacokinetic study in jugular vein catheterized rats. As to conditions: Cy7.5 10 mg/kg, serum. The series is classed as in vivo. Here is the method: FIGS. 2A and 2B show cumulative release profile for both hydrophilic (Gd-DTPA) (FIG. 2A) and hydrophobic (Cy7.5) payloads (FIG. 2B) from STICK-NPs and NM in the presence of different pH. A mixture of NM and free Gd was used in (FIG. 2A), as Gd could not be loaded into NM. Drug release study was performed initially at pH 7.4 PBS (grey areas) and was then subjected to pH 6.5 after 4 h (pink areas). Samples were collected at different time points and were measured by inductively coupled plasma mass spectrometry (ICP-MS) for Gd-DTPA level and fluorescence spectrometer for the concentration of Cy7.5. (n=3). […] (n=3) FIG. 2E show the intensity-weighted distribution changes of STICK-NPs in the presence of different concentrations of glucose (mmol/L). Of note, normal human serum glucose level ranges from 3.9 to 5.5 mmol/L. FIG. 2F show pharmacokinetic profiles of free Cy7.5, STICK-NP@Cy, and NM@Cy (Cy7.5, 10 mg/kg) in jugular vein catheterized rats (n=3). Serum was collected at different time points, and drug concentrations were measured based on fluorescence signals. The error bars were the standard deviation (SD).

The test system of series [4] is DIPG (PDX) cells. In words: Anti-cancer efficacy in orthotopic PDX DIPG mouse model. The series is classed as in vivo, SCID mouse. Here is the method:
Anti-cancer efficacy study in orthotopic brain tumor models. […] After confirming the establishment of brain tumors, mice were randomly assigned into different groups. Tumor size was monitored using advanced T1-weight imaging (TR/TE=300 ms/15 ms). For imaging study, mice were injected with 250 mg/kg Gd-DTPA. Tumor size of DIPG model was calculated from the aggregation of tumor area in different MRI slices, 1 mm thick. Tumor size of GBM model was calculated as the followed equation: […]
where W is the width of the tumor and the L is the length of the tumor (W<L). One mouse per group was sacrificed on day 12 after MRI imaging, and organs and brain with tumors were harvested for histopathology evaluation. Animals were continuously monitored their appearance, behavior, and body weight. Once the body weight loss>20%, animals were considered as reaching the humane endpoint.

`CNC[C@H](O)[C@@H](O)[C@H](O)[C@H](O)CO.CNC[C@H](O)[C@@H](O)[C@H](O)[C@H](O)CO.O=C([O-])CN(CCN(CC(=O)[O-])CC(=O)O)CCN(CC(=O)[O-])CC(=O)O.[Gd+3]` [free Gd-DTPA, gadopentetic acid]: in series [1], the “Release of Gd-DTPA” value is “released immediately”.
Broadly, the Cmax is the peak of the concentration-time curve. Broadly, the Vz is the apparent volume that relates the amount in the body to the concentration in plasma or blood. High values mean wide distribution into tissue, low ones little distribution into tissue. On to cyanine 7.5 [Free Cy], for which the “U87-MG cell uptake after pretreatment with pH 6.5” value in series [2] is given as “no significant enhancement”. In series [3], the “AUC(0-∞)” value was 51400 ± 13400 ng·h/mL, the Cmax was determined as 4190 ± 400 ng/mL, the Vz came to 2.46 ± 0.51 L/kg and the t1/2z is on record as 16.92 ± 0.78 h.
Turning to `CC[C@]1(O)C[C@H]2CN(CCc3c([nH]c4ccccc34)[C@@](C(=O)OC)(c3cc4c(cc3OC)N(C=O)[C@H]3[C@@](O)(C(=O)OC)[C@H](OC(C)=O)[C@]5(CC)C=CCN6CC[C@]43[C@@H]65)C2)C1` [free VCR, vincristine], in series [4] (MRI, compared to PBS control), the “Effect on tumor growth” value was “minimal inhibition effects”. Moreover, in series [4] (mouse, in vivo), the “Extension of survival compared to PBS control” value was “failed to extend the survival” and the “Survival of mice beyond day 12” value is given as “died after day 12”.
